According to US20100160207A1, “Feedback Prodrug” (University of Georgia Research Foundation, Inc., priority 2006, published 2010):
One block for each compound: values may come before it.

Legend:
[1] = molecular target: T1, human lysosomal mannosidase (HLM) (Homo sapiens, UniProt O00754); test: Inhibition of human lysosomal mannosidase; type: biochemical
T1 sequence (O00754 50-1011): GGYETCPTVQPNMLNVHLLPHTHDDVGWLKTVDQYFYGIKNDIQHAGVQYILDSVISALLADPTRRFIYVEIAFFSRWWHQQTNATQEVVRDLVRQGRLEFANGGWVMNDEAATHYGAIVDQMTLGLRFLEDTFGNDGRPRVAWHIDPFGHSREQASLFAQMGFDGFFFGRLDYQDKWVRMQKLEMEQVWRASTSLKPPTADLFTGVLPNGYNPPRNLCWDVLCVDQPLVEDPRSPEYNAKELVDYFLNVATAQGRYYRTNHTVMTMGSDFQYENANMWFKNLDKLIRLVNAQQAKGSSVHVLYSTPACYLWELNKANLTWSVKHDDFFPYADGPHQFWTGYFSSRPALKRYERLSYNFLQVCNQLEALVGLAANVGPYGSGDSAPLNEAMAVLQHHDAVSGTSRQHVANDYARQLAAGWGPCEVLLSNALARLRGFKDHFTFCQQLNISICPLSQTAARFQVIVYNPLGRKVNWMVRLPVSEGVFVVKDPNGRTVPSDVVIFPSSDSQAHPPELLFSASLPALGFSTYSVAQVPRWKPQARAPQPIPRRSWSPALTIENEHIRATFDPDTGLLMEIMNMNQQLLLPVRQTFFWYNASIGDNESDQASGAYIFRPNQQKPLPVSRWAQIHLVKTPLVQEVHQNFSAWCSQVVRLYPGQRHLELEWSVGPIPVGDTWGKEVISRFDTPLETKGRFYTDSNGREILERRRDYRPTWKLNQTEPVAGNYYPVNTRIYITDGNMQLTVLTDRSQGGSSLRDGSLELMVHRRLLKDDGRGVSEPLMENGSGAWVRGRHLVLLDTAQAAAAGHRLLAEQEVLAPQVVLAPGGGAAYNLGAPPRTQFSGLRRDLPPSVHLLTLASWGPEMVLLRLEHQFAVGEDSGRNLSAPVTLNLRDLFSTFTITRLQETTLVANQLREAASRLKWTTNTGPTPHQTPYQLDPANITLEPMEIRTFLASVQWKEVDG

MDAY-D2 lymphoma cells = test: Inhibition of cell surface polylactosamine biosynthesis (L-PHA lectin blot); type: cell-based; details: MDAY-D2 cells cultured for two days
Protocol: MDAY-D2 cells were cultured for 2 days in the absence (control) or presence of different concentrations of compounds 14 (a) or 15 (b). Cellular proteins (10 μg) were subjected to SDS-PAGE and polylactosamine was visualized using a fluorescein labeled L-PHA lectin (upper part figure). Fluorescence bands were scanned by laser beam densitometry, and the relative intensity depicted (lower part figure).
It is known that the metastatic MDAY-D2 lymphoma cell line over-expresses the enzyme N-acetyl glucosaminyltransferase V (GnTV) (Goss et al., Clin. Cancer Res. 1995, 1, 935). […] Subsequently, the presence of polylactosamine linked to proteins was determined by analyzing cell lysates by Western blotting using a fluorescein labeled PHA lectin (Dennis et al., Cancer Res. 1990, 50, 1867).
Cell maintenance. […] New batches of frozen cell stock were grown up every 2 months and growth morphology was evaluated.
Inhibition of cell surface polylactosamine biosynthesis. […] Protein concentrations were determined using the BCA reagent (Pierce) and cellular proteins (10 μg) were separated by SDS-PAGE using 4-20% linear gradient polyacrylamide gels (Bio-Rad). […] Fluorescence bands were imaged at 495 nm (absorbance)/520 nm (emission) and the intensity scanned by laser beam densitometry (Typhoon 9410 Imager; Amersham Biosciences).

[2] = molecular target: T1, human lysosomal mannosidase (HLM); details: Li et al., Chem. Bio. Chem. 2004; cited from earlier work
[3] = Stability measurements in deuterated sodium acetate buffer by 1H NMR; type: physicochemical; details: 0.4 mM, sodium acetate buffer pH 4.0, 37° C., 6 days
Protocol: Stability measurements. A solution of compound 1 or 2 (0.4 mM) in deuterated sodium acetate buffer (100 mM; pH 4.0; 0.2 ml) in a NMR tube was incubated at 37° C. for 6 days. ^1H NMR spectra were recorded every day.

[4] = Self-decomposition half-time of the intermediate released from prodrug 2 by Jack Bean mannosidase, followed by 1H NMR; type: physicochemical; details: phosphate/citrate buffer
Protocol: Next, the pH dependence of the self-fragmentation of intermediates 3 and 4 was investigated. It is well known that different organelles have different pH values. […] Golgi mannosidase II has been identified as a target for anti-metastatic therapy (Goss et al., Clin. Cancer Res. 1995, 1, 935; Elbein, FASEB J. 1991, 5, 3055), whereas inhibition of lysosomal mannosidase leads to the phenotype of lysosomal storage disease. […] Thus, compound 2 (0.4 mM) in sodium acetate buffers of different pH was treated with a large quantity (7 Units/mL) of Jack Bean α-mannosidase (JBM) to completely convert the prodrug into intermediate 4. Subsequently, the decomposition of 4 was monitored by ^1H NMR by integration of key signals of the intermediate and final product. […] The results of these experiments indicate that in a compartment such as the medial Golgi, which has a pH close to neutral, the decomposition of the intermediate will occur in minutes, which is probably fast enough for rebinding of the inhibitor.
Self-decomposition half-time measurements. A solution of compound 2 (0.08 μmol) and Jack Bean mannosidase (JBM) (1.4 Units) in deuterated 0.2 M phosphate/0.1 M citrate buffer (pH=4.0, 4.5, 5.0, 5.5, 6.0 or 6.5; 0.2 ml) was incubated at 37° C. or 25° C., and ^1H NMR spectra (600 MHz) were recorded at different time intervals. Relevant signals were integrated to determine the appearance of the intermediate 4 and the final product 6, and the decomposition rate.

α-glucosidase = test: Negative enzyme control experiment, α-glucosidase; type: biochemical; details: 0.1 Unit, MES buffer pH 6.8, 37° C., 20 h
Protocol: (§1) Compounds 1 and 2 were subjected to an α-glucosidase, α-fucosidase and α-galactosidase.
(§2) Negative enzyme control experiments. A solution of compound 1 or 2 (0.004 mmol) and α-glucosidase, α-galactosidase or α-L-fucosidase (0.1 Unit) in MES buffer (0.05 M; pH 6.8 for α-glucosidase, pH 6.5 for α-galactosidase or pH 5.5 for α-L-fucosidase; 1 ml) was incubated at 37° C. for 20 h, after which the reaction mixture was freezing-dried, and the solid residue was analyzed by ^1H NMR spectrometry and mass spectrometry.

α-L-fucosidase = test: Negative enzyme control experiment, α-L-fucosidase; type: biochemical; details: 0.1 Unit, MES buffer pH 5.5, 37° C., 20 h
Protocol: as §1, §2

α-galactosidase = test: Negative enzyme control experiment, α-galactosidase; type: biochemical; details: 0.1 Unit, MES buffer pH 6.5, 37° C., 20 h
Protocol: as §1, §2

[5] = molecular target: T1, human lysosomal mannosidase (HLM); test: Enzymatic cleavage of prodrugs by human lysosomal mannosidase monitored by 1H NMR; type: biochemical; details: HLM 20 mU, 80 nmol compound, sodium acetate buffer pH 5.6, 37° C.
Protocol: HLM ([…]) was added to a solution of 2 (a) or 1 (b) ([…]) in a deuterated sodium acetate buffer (100 mM, pH, 5.6, 0.2 mL) and the enzymatic cleavage was monitored by ^1H NMR (600 MHz).
The enzymatic cleavage of 1 and 2 by human lysosomal mannosidase (HLM) was monitored by ^1H NMR (600 MHz) (Wilson et al., Org. Lett. 1999, 1, 443) Thus, HLM (20 mU) was added to a solution of 1 or 2 (80 nmol) dissolved in a deuterated sodium acetate buffer (100 mM, pH 5.6, 0.2 mL). The progress of the reaction was monitored by the integration of key signals of the starting material, the intermediate and final product. […] In this case, the released mannostatin A (5) inhibits HLM terminating further hydrolysis of 1. Mannostatin A is a potent inhibitor of retaining α-mannosidases (Ki=90 nM, HLM) (Li et al., Chem. Bio. Chem. 2004, 5, 1220) and thus the release of low concentrations of the active compound is sufficient to abolish enzyme activity.
Kinetic measurements. A solution of compound 1 or 2 (0.08 μmol) and human lysosomal mannosidase (HLM, 0.02 Unit) in deuterated sodium acetate buffer (0.1 M; pH 5.6; 0.2 ml) was incubated at 37° C., and ^1H NMR spectra (600 MHz) were recorded at different time intervals. Relevant signals were integrated to determine the rate of enzymatic hydrolysis, and the appearance of the intermediate and the final product.

inhibition of HLM [1]: not an inhibitor of HLM
Structure (SMILES): NC1C(O)C(O)C(O)C1O (centres unmarked) [Compound 6, aminocyclopentitetrol]

Structure (SMILES): CC(=O)OC[C@H]1O[C@H](Oc2ccc(COC(=O)NC3C(OC(C)=O)C(OC(C)=O)C(OC(C)=O)C3OC(C)=O)cc2)[C@@H](OC(C)=O)[C@@H](OC(C)=O)[C@@H]1OC(C)=O (stereo partly drawn) [Compound 15, (1,4/2,3,5)-5-[4-(2,3,4,6-tetra-O-acetyl-α-D-mannopyranosyloxy)-benzyloxycarbonyl]amino-1,2,3,4-tetra-O-acetyl-1,2,3,4-cyclopentanetetrol]
inhibitory activity on polylactosamine formation (MDAY-D2 lymphoma cells; 0.1-100 μM): did not display any inhibitory activity

Structure (SMILES): CS[C@@H]1[C@@H](N)[C@@H](O)[C@@H](O)[C@H]1O [Mannostatin A, mannostatin A]
Ki [2]: 90 nM

decomposition in buffer [3]: No decomposition of product was observed
half-life of self-fragmentation ([4]; pH 4.0, 25° C.): 46.67 h
half-life of self-fragmentation ([4]; pH 4.0, 37° C.): 8 h
half-life of self-fragmentation ([4]; pH 4.5, 37° C.): 4.5 h
half-life of self-fragmentation ([4]; pH 5.0, 37° C.): 1.67 h
half-life of self-fragmentation ([4]; pH 5.5, 37° C.): 0.75 h
half-life of self-fragmentation ([4]; pH 6.0, 37° C.): 0.267 h
half-life of self-fragmentation ([4]; pH 6.5, 25° C.): 0.75 h
half-life of self-fragmentation ([4]; pH 6.5, 37° C.): 0.15 h
decomposition by α-glucosidase (α-glucosidase): No decomposition of product was observed
decomposition by α-L-fucosidase (α-L-fucosidase): No decomposition of product was observed
decomposition by α-galactosidase (α-galactosidase): No decomposition of product was observed
enzymatic hydrolysis of the prodrug by HLM [5]: progressed to completion
Structure (SMILES): O=C(NC1C(O)C(O)C(O)C1O)OCc1ccc(O[C@H]2O[C@H](CO)[C@@H](O)[C@H](O)[C@@H]2O)cc1 (stereo partly drawn) [Compound 2, (1,4/2,3,5)-5-[4-(α-D-mannopyranosyloxy)-benzyloxycarbonyl]amino-1,2,3,4-cyclopentanetetrol]

Structure (SMILES): CSC1C(NC(=O)OCc2ccc(O[C@H]3O[C@H](COC(C)=O)[C@@H](OC(C)=O)[C@H](OC(C)=O)[C@@H]3OC(C)=O)cc2)C(OC(C)=O)C(OC(C)=O)C1OC(C)=O (stereo partly drawn) [Compound 14, 1D-(1,2,3,4/5)-4-[4-(2,3,4,6-tetra-O-acetyl-α-D-mannopyranosyloxy)-benzyloxycarbonyl]amino-1,2,3-tri-O-acetyl-5-(methylsulfanyl)cyclopentane-1,2,3-triol]
reduction in fluorescein labeling (polylactosamine) (MDAY-D2 lymphoma cells; 1 μM): 50%
